Assay results published in patent US8735384B2, “Amino heteroaryl compounds as beta-secretase modulators and methods of use” (Amgen Inc., priority 2010, dated 2014).
Where two headings read alike, the source gives them in different places.

What was measured:
BACE1 = BACE1 (Homo sapiens, UniProt P56817); experiment: In vitro enzymatic BACE FRET assay; format: biochemical; conditions: beta secretase enzyme 0.2 nM, FRET substrate 50 nM, pH 4.2; read-out: BACE1 FRET assay (IC50 class)
Method in brief: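 Beta-secretase (0.2 nM) was pre-incubated 1 h with serially diluted inhibitor in 0.05 M acetate pH 4.2, 10% DMSO, 100 uM genapol. Then 50 nM quenched peptide FRET substrate was added for 1 h. The reaction was stopped with Tris to neutral pH and fluorescence read ([…]).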

[1] = tested on: Aβ40 in conditioned medium of cells stably expressing Amyloid Precursor Protein (APP); experiment: In vitro BACE cell-based assay (HEK cell assay), Aβ40 sandwich ELISA; conditions: inhibition of Aβ40, 24 h incubation, read-out: HEK cell assay (IC50 class)
Method in brief: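 APP-stably expressing cells (40K/well) grown 24 h, then treated 24 h with 10-point doses from 100 μM or 10 μM top (0.1% DMSO). Secreted Aβ40 quantified by sandwich ELISA (pAb40 capture, biotinylated 6E10 detection, europium time-resolved fluorescence); IC50 from percent inhibition versus concentration.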

Chain of BACE1 (P56817 46-501, species assumed): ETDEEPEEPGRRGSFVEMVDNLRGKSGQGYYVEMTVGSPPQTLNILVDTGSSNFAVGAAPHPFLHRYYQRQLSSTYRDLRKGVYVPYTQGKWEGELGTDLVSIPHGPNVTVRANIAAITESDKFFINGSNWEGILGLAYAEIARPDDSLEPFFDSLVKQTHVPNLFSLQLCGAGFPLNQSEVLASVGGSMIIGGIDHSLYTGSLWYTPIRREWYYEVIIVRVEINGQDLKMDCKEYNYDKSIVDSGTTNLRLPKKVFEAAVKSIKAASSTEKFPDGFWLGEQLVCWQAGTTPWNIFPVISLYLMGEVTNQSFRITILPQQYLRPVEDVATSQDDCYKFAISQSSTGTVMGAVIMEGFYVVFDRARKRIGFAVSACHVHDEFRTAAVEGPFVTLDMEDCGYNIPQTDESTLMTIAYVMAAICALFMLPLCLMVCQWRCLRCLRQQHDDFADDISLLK

SMILES | IC50 (BACE1) [nM] | IC50 ([1]; Homo sapiens, HEK293, 24 h) [nM] | IC50 [1] [nM]
Cc1cccc(C(=O)N(C)c2ccc(F)cc2)c1-c1ccc2nc(N)c(N3CCOCC3)cc2c1 [Example 138, 2-(2-amino-3-morpholinoquinolin-6-yl)-N-(4-fluorophenyl)-N,3-dimethylbenzamide] | 100 to 500 | 1010 to 5000 | –
Nc1nc2cc(F)c(-c3ccccc3C(=O)N3CCCC3)cc2cc1N1CCOCC1 [Example 140, (2-(2-amino-7-fluoro-3-morpholinoquinolin-6-yl)phenyl)(pyrrolidin-1-yl)methanone] | 100 to 500 | 1010 to 5000 | –
CC(C)(C)C#Cc1cccc(C(=O)N2CCCC2)c1-c1ccc2nc(N)c(N3CCOCC3)cc2c1 [Example 44, (2-(2-amino-3-morpholinoquinolin-6-yl)-3-(3,3-dimethylbut-1-ynyl)phenyl)(pyrrolidin-1-yl)methanone] | < 100 | 100 to 500 | –
Cc1cccc(C(=O)N2CCC(C(F)(F)F)C2)c1-c1ccc2nc(N)c(N3CCOCC3)cc2c1 (stereo not drawn) [Example 96, (2-(2-amino-3-morpholinoquinolin-6-yl)-3-methylphenyl)(3-(trifluoromethyl)pyrrolidin-1-yl)methanone] | < 100 | 1010 to 5000 | –
Nc1nc2ccc(-c3ccc(F)cc3C(=O)N3CCC3)cc2cc1N1CCOCC1 [Example 128, (2-(2-amino-3-morpholinoquinolin-6-yl)-5-fluorophenyl)(azetidin-1-yl)methanone] | 1010 to 5000 | > 5000 | –
Cc1cccc(C(=O)N2CC[C@@H](C)C2)c1-c1ccc2nc(N)c(N3CCOCC3)cc2c1 [Example 101, (R)-(2-(2-amino-3-morpholinoquinolin-6-yl)-3-methylphenyl)(3-methylpyrrolidin-1-yl)methanone] | < 100 | 501 to 1000 | –
Cc1ccc(N(C)C(=O)c2cccc(C)c2-c2ccc3nc(N)c(N4CCOCC4)cc3c2)cc1 [Example 131, 2-(2-amino-3-morpholinoquinolin-6-yl)-N,3-dimethyl-N-p-tolylbenzamide] | < 100 | 1010 to 5000 | –
Cc1cccc(C(=O)N2CCCC2)c1-c1cc2cc(N3CCOCC3)c(N)nc2cc1F [Example 39, (2-(2-amino-7-fluoro-3-morpholinoquinolin-6-yl)-3-methylphenyl)(pyrrolidin-1-yl)methanone] | < 100 | 501 to 1000 | –
CC(C)(C)CCc1cccc(C(=O)N2CCC2)c1-c1ccc2nc(N)c(N3CCOCC3)cc2c1 [Example 164, (2-(2-amino-3-morpholinoquinolin-6-yl)-3-(3,3-dimethylbutyl)phenyl)(azetidin-1-yl)methanone] | < 100 | < 100 | –
Cc1cccc(Cc2cnccn2)c1-c1ccc2nc(N)c(N3CCOCC3)cc2c1 [Example 37, 6-(2-methyl-6-(pyrazin-2-ylmethyl)phenyl)-3-morpholinoquinolin-2-amine] | 501 to 1000 | 1010 to 5000 | –
COc1ccccc1N(C)C(=O)c1cccc(C)c1-c1ccc2nc(N)c(N3CCOCC3)cc2c1 [Example 139, 2-(2-amino-3-morpholinoquinolin-6-yl)-N-(2-methoxyphenyl)-N,3-dimethylbenzamide] | < 100 | 1010 to 5000 | –
Nc1nc2ccc(-c3ccccc3C(=O)C3CCOCC3)cc2cc1N1CCOCC1 [Example 11, (2-(2-amino-3-morpholinoquinolin-6-yl)phenyl)(tetrahydro-2H-pyran-4-yl)methanone] | 100 to 500 | 1010 to 5000 | –
Nc1nc2ccc(-c3c(C#Cc4ccccc4)cccc3C(=O)N3CCCC3)cc2cc1N1CCOCC1 [Example 161, (2-(2-amino-3-morpholinoquinolin-6-yl)-3-(phenylethynyl)phenyl)(pyrrolidin-1-yl)methanone] | < 100 | 501 to 1000 | –
Cc1cccc(C(=O)N2CCCC2)c1-c1ccc2nc(N)c(C3=CCCC3)cc2c1 [Example 57, (2-(2-amino-3-cyclopentenylquinolin-6-yl)-3-methylphenyl)(pyrrolidin-1-yl)methanone] | 100 to 500 | 1010 to 5000 | –
COCC1CCN(C(=O)c2cccc(C)c2-c2ccc3nc(N)c(N4CCOCC4)cc3c2)CC1 [Example 73, (2-(2-amino-3-morpholinoquinolin-6-yl)-3-methylphenyl)(4-(methoxymethyl)piperidin-1-yl)methanone] | 100 to 500 | 1010 to 5000 | –
Cc1cccc(C(=O)C2CCCO2)c1-c1ccc2nc(N)c(N3CCOCC3)cc2c1 (stereo not drawn) [Example 5, (2-(2-amino-3-morpholinoquinolin-6-yl)-3-methylphenyl)(tetrahydrofuran-2-yl)methanone] | 100 to 500 | 501 to 1000 | –
Cc1cccc(-c2cccc(C(F)(F)F)c2)c1-c1ccc2nc(N)c(N3CCOCC3)cc2c1 [Example 25, 6-(3-methyl-3′-(trifluoromethyl)biphenyl-2-yl)-3-morpholinoquinolin-2-amine] | < 100 | > 5000 | –
CCCC1CCCCN1C(=O)c1cccc(C)c1-c1ccc2nc(N)c(N3CCOCC3)cc2c1 (stereo not drawn) [Example 79, (2-(2-amino-3-morpholinoquinolin-6-yl)-3-methylphenyl)(2-propylpiperidin-1-yl)methanone] | 100 to 500 | 1010 to 5000 | –
Cc1cccc(C(c2ccccc2)N2CCCC2)c1-c1ccc2nc(N)c(N3CCOCC3)cc2c1 (stereo not drawn) [Example 9, 6-(2-methyl-6-(phenyl(pyrrolidin-1-yl)methyl)phenyl)-3-morpholinoquinolin-2-amine] | 501 to 1000 | 100 to 500 | –
CCCN(CC)C(=O)c1cccc(C)c1-c1ccc2nc(N)c(N3CCOCC3)cc2c1 [Example 105, 2-(2-amino-3-morpholinoquinolin-6-yl)-N-ethyl-3-methyl-N-propylbenzamide] | 501 to 1000 | 1010 to 5000 | –
CCCC1CCCN1C(=O)c1cccc(C)c1-c1ccc2nc(N)c(N3CCOCC3)cc2c1 (stereo not drawn) [Example 63, (2-(2-amino-3-morpholinoquinolin-6-yl)-3-methylphenyl)(2-propylpyrrolidin-1-yl)methanone] | 100 to 500 | 1010 to 5000 | –
Cc1cccc(C(=NO)c2ccccc2)c1-c1ccc2nc(N)c(N3CCOCC3)cc2c1 (stereo in doubt) [Example 16, (Z)-(2-(2-amino-3-morpholinoquinolin-6-yl)-3-methylphenyl)(phenyl)methanone oxime] | < 100 | – | 501 to 1000
CCOC1CCN(C(=O)c2cccc(C)c2-c2ccc3nc(N)c(N4CCOCC4)cc3c2)CC1 [Example 76, (2-(2-amino-3-morpholinoquinolin-6-yl)-3-methylphenyl)(4-ethoxypiperidin-1-yl)methanone] | < 100 | 1010 to 5000 | –

Now from value to compound:

IC50 (BACE1) [nM] | IC50 ([1]; Homo sapiens, HEK293, 24 h) [nM] | IC50 [1] [nM] | SMILES
100 to 500 | 1010 to 5000 | – | CCCC(=O)c1cccc(C)c1-c1ccc2nc(N)c(N3CCOCC3)cc2c1 [Example 179, 1-(2-(2-amino-3-morpholinoquinolin-6-yl)-3-methylphenyl)butan-1-one]
100 to 500 | 1010 to 5000 | – | COc1cccc(C(=O)c2cccc(C)c2-c2ccc3nc(N)c(N4CCOCC4)cc3c2)c1 [Example 177, (2-(2-amino-3-morpholinoquinolin-6-yl)-3-methylphenyl)(3-methoxyphenyl)methanone]
< 100 | > 5000 | – | Cc1cccc(OCc2ccccc2)c1-c1ccc2nc(N)c(N3CCOCC3)cc2c1 [Example 169, 6-(2-(benzyloxy)-6-methylphenyl)-3-morpholinoquinolin-2-amine]
< 100 | < 100 | – | CC(C)(C)CCc1cccc(C(=O)N2CCCC2)c1-c1ccc2nc(N)c(N3C[C@@H]4C[C@H]3CO4)cc2c1 [Example 165, (2-(2-amino-3-((1S,4S)-2-oxa-5-azabicyclo[2.2.1]heptan-5-yl)quinolin-6-yl)-3-(3,3-dimethylbutyl)phenyl)(pyrrolidin-1-yl)methanone]
< 100 | 1010 to 5000 | – | Cc1ccc(C(=O)c2cccc(C)c2-c2ccc3nc(N)c(N4CCOCC4)cc3c2)cc1 [Example 178, (2-(2-amino-3-morpholinoquinolin-6-yl)-3-methylphenyl)(p-tolyl)methanone]
< 100 | 1010 to 5000 | – | Cc1cccc(C(=O)C2CCCCC2)c1-c1ccc2nc(N)c(N3CCOCC3)cc2c1 [Example 181, (2-(2-amino-3-morpholinoquinolin-6-yl)-3-methylphenyl)(cyclohexyl)methanone]
< 100 | 100 to 500 | – | Nc1nc2ccc(-c3c(CC4OCCO4)cccc3C(=O)N3CCCC3)cc2cc1N1CCOCC1 [Example 192, (3-((1,3-dioxolan-2-yl)methyl)-2-(2-amino-3-morpholinoquinolin-6-yl)phenyl)(pyrrolidin-1-yl)methanone]
< 100 | < 100 | – | CC(C)(C)CCc1cccc(C(=O)N2CC[C@H](F)C2)c1-c1ccc2nc(N)c(N3CCOCC3)cc2c1 [Example 166, (S)-(2-(2-amino-3-morpholinoquinolin-6-yl)-3-(3,3-dimethylbutyl)phenyl)(3-fluoropyrrolidin-1-yl)methanone]
< 100 | 501 to 1000 | – | Cc1cccc(C(=O)N2CCCC2)c1-c1ccc2nc(N)c(N3CCOC(C)C3C)cc2c1 (stereo not drawn) [Example 209, (2-(2-amino-3-(2,3-dimethylmorpholino)quinolin-6-yl)-3-methylphenyl)(pyrrolidin-1-yl)methanone]
< 100 | 1010 to 5000 | – | CO/N=C(/c1ccccc1)c1cccc(C)c1-c1ccc2nc(N)c(N3CCOCC3)cc2c1 [Example 191, (Z)-(2-(2-amino-3-morpholinoquinolin-6-yl)-3-methylphenyl)(phenyl)methanone O-methyl oxime]
